Experimental data published in patent US6599541B1, “Composition for treatment of drug resistant bacterial infections and a method of treating drug resistant bacterial infections” (priority 1999, dated 2003).
≈ marks a conversion by molar mass, not a printed value. Where “and” joins values, the source holds several entries; their conditions need not be identical. Equal entries are not always repeated. Where two headings read alike, the source gives them in different places.

How the values were obtained:
[1] = tested on: Staphylococcus aureus; assay: Agar Dilution Method of Sensitivity testing, NE alone and NE + antibiotic; format: cell-based; details: for Growth Patterns after addition of NE: no. of cultures +++ (growth) / Growth Patterns after addition of NE: no. of cultures −−− (inhibition of growth): resistant S. aureus cultures, 48 hours
Description: (§1) Two kinds of investigations were carried-out using these bacterial isolates—using an Agar Dilution Method of Sensitivity testing.
(§2) i) To ascertain whether, NE can work as an antibacterial substance on its own. For this purpose, a stock-solution of NE was prepared and was sterilized as described in the preliminary experiments.
(§3) ii) This stock-solution was dispensed into the culture medium (Mueller Hinton Agar) so as to provide while; the medium was in liquid form. Four different concentrations of NE, viz.
(§4) iii) This medium was poured into petri dishes and allowed to solidify. Resistant cultures were inoculated on to these plates and after incubation for 48 hours, the growth patterns were assessed.
(§5) iv) The experiments were run in triplicate, for each concentration—as per standard practices of microbiological testing procedures.
(§6) i) The culture medium (Mueller Hinton Agar) was melted and distributed into a number of test tubes.
(§7) ii) The stock solution of NE was dispensed into these test tubes in four different concentrations viz.
(§8) iii) In the same medium, one of the antibiotics under investigation was also added so as to provide a variable concentration (at break-even point concentration) as described below:
(§9) iv) The culture medium containing NE extract+the antibiotic were poured into petri dishes and allowed to solidify.
(§10) v) The resistant bacterial strains were inoculated onto these plates, incubated for 48 hours and the growth patterns were studied on each plate.
These cultures were obtained various clinical samples, such as sputum, non-healing infected wounds, throat swabs etc.

[2] = tested on: β-haemolytic streptococci; assay: Broth tube test of NE with antibiotic at break point, percentage of killing; format: cell-based; details: for bacterial growth in control tubes: NE and antibiotic added individually
Description: (§11) Since all the study isolates are resistant to the concerned antibiotics, each antibiotic is taken at its breakpoint concentration, (the highest serum concentration of that particular antibiotic reached after the maximum therapeutic dose in-vivo). The break points for various antibiotics are as follows:
(§12) Preparation of Neem Extract: Stock solution of neem extract (1 mg/ml) was prepared, filtered and autoclaved. It was used in 4 concentrations—1000 μg/ml; 500 μg/ml; 250 μg/ml; 125 μg/ml.
(§13) A set of four tubes with variable concentrations of the extract is prepared and to each of these tubes, the break point concentration of antibiotics is added. Now, these sets are inoculated with the study isolate in the same manner as per the broth dilution procedure. A set of six controls is inoculated with each isolate—in parallel with the main experiment.
(§14) 2. Only antibiotic solution
(§15) 3. Medium and antibiotic solution with inoculum
(§16) 5. Only Neem extract at 250 μg/ml
(§17) 6. Medium with Neem Extract and inoculum
(§18) Reading the test All the tests and control tubes are observed for visible turbidity of growth first. Since all the study isolates were earlier confirmed to be resistant to the antibiotics, the bacterial growth is expected at the breakpoint concentration of the antibiotic. Any reduction in the turbidity as compared to the control tube no. 3 is noted as a possible additive or synergistic effect of the neem extract with the antibiotic. In absence of such effect, the tubes may show growth matching with the control no. 4.
(§19) In case of a positive result, further sub-culturing was taken up, on solid media for colony counts with a calibrated loop. The colony counts could be noted by a semi quantitative method as 101 to 10^5 CFU/ml (Colony forming units). This is finally expressed as the percentage of killing as compared to the colony count obtained with control no. 4. Usually control tubes no. 3, 4 and 6 had similar colony counts.

[3] = tested on: β-haemolytic streptococci; assay: Broth Macro Dilution Test, MIC and MBC; format: cell-based; details: antibiotic alone, read-out: minimum inhibitory concentration (MIC)
Description: (§20) This was done by estimation of the Minimum Inhibitory Concentration (MIC) and Minimum Bactericidal Concentration (MBC) on the selected isolates by a Broth Macro Dilution Test.
(§21) Cation Supplemented Mueller Hinton Broth was used as medium for all organisms excepting for β haemolytic streptococci for which, Todd Hewit's Broth was used as medium.
(§22) The following concentrations of antibiotics were tested to determine MIC and MBC.
(§23) A minimum inhibitory concentration is the lowest level of antibiotic needed to cause an inhibition to bacterial growth in culture medium whereas, the minimum bactericidal concentration is the lowest concentration of antibiotic to achieve a 100% killing of bacteria. Thus, these two values are the practical indices of intensity of bacterial resistance to a given antibiotic. On the other hand, a break-even point of any antibiotic indicates the attainable blood levels after an administration of full dose, in human/animal body. Thus, this point indicates the practical dosage of administering any given antibiotic effectively and beyond this point, even if an antibiotic is found to act effectively in experimental situation—such dose cannot be administered in a clinical situation.

[4] = tested on: Staphylococcus aureus; assay: Broth Macro Dilution Test, MIC and MBC; format: cell-based; details: Example 12: strain from non-healing burn wound swab culture, antibiotic alone
Description: as §20, §21, §22, §23

[5] = highest serum concentration reached after the maximum therapeutic dose in-vivo; cited from earlier work
[6] = tested on: respiratory/surgical infections by bacteria resistant to the antibiotic; assay: Clinical study of NE tablets + antibiotic in non-responding infections, all cases; details: NE tablets 100 mg twice a day + that antibiotic, 1-3 weeks
[7] = tested on: Escherichia coli; assay: Agar Dilution Method of Sensitivity testing, NE alone and NE + antibiotic; format: cell-based; details: 37 resistant E. coli strains, 48 hours
Description: as §1, §2, §3, §4, §5, §6, §7, §8, §9, §10

[8] = tested on: Mixed Infections; assay: Clinical study of NE tablets + antibiotic in non-responding infections
[9] = tested on: Proteus mirabilis; assay: Agar Dilution Method of Sensitivity testing, NE + antibiotic; format: cell-based; details: resistant Proteus mirabilis strains, 48 hours
Description: as §1, §6, §7, §8, §9, §10
The sensitization effect of NE was also examined on Proteus mirabilis strains resistant to Penicillin derivatives and quinolone derivative antibiotics.

[10] = tested on: Staphylococcus aureus; assay: Broth tube test of NE with antibiotic at break point, percentage of killing; format: cell-based; details: Example 12 strain; antibiotic with NE, uniform for all the concentrations of NE
Description: as §11, §12, §13, §14, §15, §16, §17, §18, §19

[11] = tested on: Klebsiella pneumoniae; assay: Agar Dilution Method of Sensitivity testing, NE alone and NE + antibiotic; format: cell-based; details: 41 resistant K. pneumoniae strains, 48 hours
Description: as §1, §2, §3, §4, §5, §6, §7, §8, §9, §10
Under the same series of investigations, sensitization effect of NE was evaluated on resistant isolates of Klebsiella pneumoniae.

[12] = tested on: Staphylococcus aureus; assay: Clinical study of NE tablets + antibiotic in non-responding infections; details: NE tablets + antibiotic to which resistant
[13] = antibiotic at break-even point + NE 125 μg/mL
[14] = antibiotic at break-even point + NE 250 μg/mL
[15] = antibiotic at break-even point + NE 500 μg/mL
[16] = antibiotic at break-even point + NE 1000 μg/mL
[17] = Respiratory Infections, NE tablets + antibiotic to which resistant
[18] = all mixed infections resistant to the antibiotic, NE tablets + antibiotic

Compound: CC[C@H]1OC(=O)[C@H](C)[C@@H](O[C@H]2C[C@@](C)(OC)[C@@H](O)[C@H](C)O2)[C@H](C)[C@@H](O[C@@H]2O[C@H](C)C[C@H](N(C)C)[C@H]2O)[C@](C)(O)C[C@@H](C)C(=O)[C@H](C)[C@@H](O)[C@]1(C)O [Erythromycin]
- clinical strains sensitized by NE to the antibiotic ([1]; 102 resistant S. aureus cultures, NE + antibiotic): 50%
- Growth Patterns after addition of NE: no. of cultures +++ (growth) [1, 13]: 72
- Growth Patterns after addition of NE: no. of cultures −−− (inhibition of growth) [1, 13]: 30
- Growth Patterns after addition of NE: no. of cultures +++ (growth) [1, 14]: 66
- Growth Patterns after addition of NE: no. of cultures −−− (inhibition of growth) [1, 14]: 36
- Growth Patterns after addition of NE: no. of cultures +++ (growth) [1, 15]: 61
- Growth Patterns after addition of NE: no. of cultures −−− (inhibition of growth) [1, 15]: 41
- Growth Patterns after addition of NE: no. of cultures +++ (growth) [1, 16]: 51
- Growth Patterns after addition of NE: no. of cultures −−− (inhibition of growth) [1, 16]: 51
- bacterial growth in control tubes ([2]; Example 8 isolate): unhindered
- bactericidal effect ([2]; Example 8 isolate, antibiotic 4 μg/ml combined with NE 1000 μg/ml): 99%
- bactericidal effect ([2]; Example 8 isolate, antibiotic 4 μg/ml combined with NE 125, 250 and 500 μg/ml): 100%
- bacterial growth in control tubes ([2]; Example 9 isolate): unhindered
- bactericidal effect ([2]; Example 9 isolate, antibiotic at break even point combined with NE 250 μg/ml and 125 μg/ml): 99%
- killing ([2]; Example 9 isolate, antibiotic at break-even point combined with NE 500 μg/ml or 1000 μg/ml): 50%
- MIC ([3]; Example 8: isolate from throat swab culture): 64 µg/mL (≈ 87.2 µM)
- MIC ([3]; Example 9: isolate from sputum culture): 32 µg/mL (≈ 43.6 µM)
- MBC [4]: > 256 µg/mL
- break point [5]: 4 µg/mL

Compound: CC1(C)S[C@@H]2[C@H](NC(=O)[C@H](N)c3ccccc3)C(=O)N2[C@H]1C(=O)O [Ampicillin]
- No. of cases with Grade-II response (complete clinical and bacteriological) [6]: 4
- Growth Patterns after addition of NE: no. of cultures +++ (growth) [7, 13]: 31
- Growth Patterns after addition of NE: no. of cultures −−− (inhibition of growth) [7, 13]: 6
- Growth Patterns after addition of NE: no. of cultures +++ (growth) [7, 14]: 31
- Growth Patterns after addition of NE: no. of cultures −−− (inhibition of growth) [7, 14]: 6
- Growth Patterns after addition of NE: no. of cultures +++ (growth) [7, 15]: 31
- Growth Patterns after addition of NE: no. of cultures −−− (inhibition of growth) [7, 15]: 6
- Growth Patterns after addition of NE: no. of cultures +++ (growth) [7, 16]: 31
- Growth Patterns after addition of NE: no. of cultures −−− (inhibition of growth) [7, 16]: 6
- Growth Patterns after addition of NE: no. of cultures +++ (growth) [1, 13]: 34
- Growth Patterns after addition of NE: no. of cultures −−− (inhibition of growth) [1, 13]: 68
- Growth Patterns after addition of NE: no. of cultures +++ (growth) [1, 14]: 29
- Growth Patterns after addition of NE: no. of cultures −−− (inhibition of growth) [1, 14]: 73
- Growth Patterns after addition of NE: no. of cultures +++ (growth) [1, 15]: 26
- Growth Patterns after addition of NE: no. of cultures −−− (inhibition of growth) [1, 15]: 76
- Growth Patterns after addition of NE: no. of cultures +++ (growth) [1, 16]: 20
- Growth Patterns after addition of NE: no. of cultures −−− (inhibition of growth) [1, 16]: 82
- No. of Cases Gr.-I [8, 17]: 1
- No. of Cases Gr.-II [8, 17]: 1
- No. of Cases Gr.-II ([8]; Surgical Infections, NE tablets + antibiotic to which resistant): 1
- No. of cases with effective sensitization / complete response [8, 18]: 2
- No. of cases with partial response [8, 18]: one
- Growth Patterns after addition of NE: no. of cultures +++ (growth) [9, 13]: 7
- Growth Patterns after addition of NE: no. of cultures −−− (inhibition of growth) [9, 13]: 3
- Growth Patterns after addition of NE: no. of cultures +++ (growth) [9, 14]: 7
- Growth Patterns after addition of NE: no. of cultures −−− (inhibition of growth) [9, 14]: 3
- Growth Patterns after addition of NE: no. of cultures +++ (growth) [9, 15]: 7
- Growth Patterns after addition of NE: no. of cultures −−− (inhibition of growth) [9, 15]: 3
- Growth Patterns after addition of NE: no. of cultures +++ (growth) [9, 16]: 7
- Growth Patterns after addition of NE: no. of cultures −−− (inhibition of growth) [9, 16]: 3
- killing [10]: 80% and 70%
- MBC [4]: > 128 µg/mL
- MIC [4]: 64 µg/mL (≈ 183 µM)
- Growth Patterns after addition of NE: no. of cultures +++ (growth) [11, 13]: 17
- Growth Patterns after addition of NE: no. of cultures −−− (inhibition of growth) [11, 13]: 24
- Growth Patterns after addition of NE: no. of cultures +++ (growth) [11, 14]: 17
- Growth Patterns after addition of NE: no. of cultures −−− (inhibition of growth) [11, 14]: 24
- Growth Patterns after addition of NE: no. of cultures +++ (growth) [11, 15]: 17
- Growth Patterns after addition of NE: no. of cultures −−− (inhibition of growth) [11, 15]: 24
- Growth Patterns after addition of NE: no. of cultures +++ (growth) [11, 16]: 17
- Growth Patterns after addition of NE: no. of cultures −−− (inhibition of growth) [11, 16]: 24

Compound: CC[C@H]1OC(=O)[C@H](C)[C@@H](O[C@H]2C[C@@](C)(OC)[C@@H](O)[C@H](C)O2)[C@H](C)[C@@H](O[C@@H]2O[C@H](C)C[C@H](N(C)C)[C@H]2O)[C@](C)(O)C[C@@H](C)/C(=N\OCOCCOC)[C@H](C)[C@@H](O)[C@]1(C)O [Roxythromycin]
- No. of cases with Grade-II response (complete clinical and bacteriological) [6]: 2
- No. of Cases Gr.-I ([12]; Respiratory Infections): 1
- No. of Cases Gr-0 ([12]; Surgical Infections): 1
- No. of Cases Gr.-II ([12]; Surgical Infections): 2
